Activity calls are given as the source filed them. No cut-off for these calls is given here.
Tests used:
Hepatocyte [1] = experiment: Antihepatotoxic activity against 1.5 hrs galactosamine pretreatment-induced cytotoxicity in Wistar rat hepatocytes assessed as glutamic-pyruvic transaminase activity at 0.1 mg/ml after 30 hrs relative to control; format: functional
Hepatocyte [2] = experiment: Cytotoxicity in Wistar rat hepatocytes assessed as glutamic-pyruvic transaminase activity at 0.01 mg/ml after 30 hrs; format: cell-based
Hepatocyte [3] = experiment: Antihepatotoxic activity against 1.5 hrs galactosamine pretreatment-induced cytotoxicity in Wistar rat hepatocytes assessed as glutamic-pyruvic transaminase activity at 1 mg/ml after 30 hrs relative to control; format: functional
Hepatocyte [4] = experiment: Cytotoxicity in Wistar rat hepatocytes assessed as glutamic-pyruvic transaminase activity at 1 mg/ml after 30 hrs; format: cell-based
Hepatocyte [5] = experiment: Cytotoxicity in Wistar rat hepatocytes assessed as glutamic-pyruvic transaminase activity at 0.1 mg/ml after 30 hrs; format: cell-based
Hepatocyte [6] = experiment: Antihepatotoxic activity against 1.5 hrs galactosamine pretreatment-induced cytotoxicity in Wistar rat hepatocytes assessed as glutamic-pyruvic transaminase activity at 0.01 mg/ml after 30 hrs relative to control; format: functional
Hepatocyte [7] = experiment: Effect on 1.5 hrs galactosamine pretreatment-induced cytotoxicity in Wistar rat hepatocytes assessed as glutamic-pyruvic transaminase activity at 1 uM; format: functional
Hepatocyte [8] = experiment: Effect on 1.5 hrs galactosamine pretreatment-induced cytotoxicity in Wistar rat hepatocytes at 1 uM; format: functional, cell-based

SMILES: COc1cc(C2Oc3cc([C@H]4Oc5cc(O)cc(O)c5C(=O)[C@@H]4O)ccc3OC2CO)ccc1O (some centres undefined) [SILIBININ]
- Activity (Hepatocyte [1]): 103%
- Activity (Hepatocyte [2]): 29 IU/L
- Activity (Hepatocyte [3]): 66%
- Activity (Hepatocyte [4]): 93 IU/L
- Activity (Hepatocyte [5]): 157 IU/L
- Activity (Hepatocyte [6]): 106%

SMILES: O=C(/C=C/c1ccccc1)OC[C@H]1O[C@@H](O[C@@H]2OC=C[C@H]3[C@H](O)[C@@H]4O[C@]4(CO)[C@@H]23)[C@H](O)[C@@H](O)[C@@H]1O [PICROSIDE I]
- Activity (Hepatocyte [1]): 122%
- Activity (Hepatocyte [2]): 24 IU/L
- Activity (Hepatocyte [3]): 111%
- Activity (Hepatocyte [4]): 131 IU/L
- Activity (Hepatocyte [5]): 50 IU/L
- Activity (Hepatocyte [6]): 96%

SMILES: CC1(C)[C@@H](O)CC[C@]2(C)[C@H]3C(=O)C=C4[C@@H]5C[C@@](C)(C(=O)O)CC[C@]5(C)CC[C@@]4(C)[C@]3(C)CC[C@@H]12 [ENOXOLONE]
- Activity (Hepatocyte [1]): 58%
- Activity (Hepatocyte [2]): 26 IU/L
- Activity (Hepatocyte [3]): 27%
- Activity (Hepatocyte [4]): 42 IU/L
- Activity (Hepatocyte [5]): 16 IU/L

SMILES: COc1cc([C@@H]2c3cc4c(cc3C[C@H]3COC(=O)[C@@H]32)OCO4)cc(OC)c1OC [DESOXYPODOPHYLLOTOXIN]
- Activity (Hepatocyte [1]): 50%
- Activity (Hepatocyte [2]): 43 IU/L
- Activity (Hepatocyte [3]): 92%
- Activity (Hepatocyte [4]): 137 IU/L
- Activity (Hepatocyte [5]): 35 IU/L
- Activity (Hepatocyte [6]): 93%

SMILES: CSCC[C@H](N)C(=O)O [METHIONINE]
- Activity (Hepatocyte [1]): 113%
- Activity (Hepatocyte [2]): 24 IU/L
- Activity (Hepatocyte [3]): 122%
- Activity (Hepatocyte [4]): 25 IU/L
- Activity (Hepatocyte [5]): 28 IU/L
- Activity (Hepatocyte [6]): 106%

SMILES: C[C@@H]1C[C@H]2[C@@H]3CCC4=CC(=O)C=C[C@]4(C)[C@@]3(F)[C@@H](O)C[C@]2(C)[C@@]1(O)C(=O)CO [DEXAMETHASONE]
- Activity (Hepatocyte [7]): 96 IU/L
- Activity (Hepatocyte [8]): inactive

SMILES: O=C(/C=C/c1ccc(O)c(O)c1)O[C@@H]1C[C@@](OC(=O)/C=C/c2ccc(O)c(O)c2)(C(=O)O)C[C@@H](O)[C@@H]1O [CYNARIN]
- Activity (Hepatocyte [1]): 84%
- Activity (Hepatocyte [2]): 20 IU/L
- Activity (Hepatocyte [3]): 48%
- Activity (Hepatocyte [4]): 51 IU/L
- Activity (Hepatocyte [5]): 27 IU/L
- Activity (Hepatocyte [6]): 95%

SMILES: CC1(C)[C@@H](O[C@H]2O[C@H](C(=O)O)[C@@H](O)[C@H](O)[C@H]2O[C@@H]2O[C@H](C(=O)O)[C@@H](O)[C@H](O)[C@H]2O)CC[C@]2(C)[C@H]3C(=O)C=C4[C@@H]5C[C@@](C)(C(=O)O)CC[C@]5(C)CC[C@@]4(C)[C@]3(C)CC[C@@H]12 [GLYCYRRHIZIN]
- Activity (Hepatocyte [1]): 100%
- Activity (Hepatocyte [2]): 24 IU/L
- Activity (Hepatocyte [3]): 24%
- Activity (Hepatocyte [4]): 21 IU/L
- Activity (Hepatocyte [5]): 59 IU/L
- Activity (Hepatocyte [6]): 103%

SMILES: COc1cc(C(=O)O[C@H]2[C@@H]3C=CO[C@@H](O[C@@H]4O[C@H](CO)[C@@H](O)[C@H](O)[C@H]4O)[C@@H]3[C@@]3(CO)O[C@@H]23)ccc1O [PICROSIDE II]
- Activity (Hepatocyte [1]): 101%
- Activity (Hepatocyte [2]): 27 IU/L
- Activity (Hepatocyte [3]): 78%
- Activity (Hepatocyte [4]): 40 IU/L
- Activity (Hepatocyte [5]): 28 IU/L
- Activity (Hepatocyte [6]): 103%

From ChEMBL document CHEMBL1145673, “Assay method for antihepatotoxic activity using galactosamine-induced cytotoxicity in primary-cultured hepatocytes” (J Nat Prod, 1983)
